In this experiment the target is Chlorite dismutase (Cld) (Dechloromonas aromatica (nom. nud.), UniProt Q47CX0). Nature of the experiment: UV/vis Soret titration, hyperbolic fit. Format: binding.
Sequence of Chlorite dismutase (Cld) (Q47CX0 35-282): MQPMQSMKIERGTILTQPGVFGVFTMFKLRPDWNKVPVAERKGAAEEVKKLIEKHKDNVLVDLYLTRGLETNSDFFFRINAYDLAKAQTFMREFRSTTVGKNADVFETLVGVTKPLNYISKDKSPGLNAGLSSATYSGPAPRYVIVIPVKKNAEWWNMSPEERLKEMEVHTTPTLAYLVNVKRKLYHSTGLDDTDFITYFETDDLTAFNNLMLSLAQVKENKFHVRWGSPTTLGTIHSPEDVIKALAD
`N#CS` [KSCN] had a Kd of 74 ± 2 µM. Then `c1ccncc1` [Pyridine], with 553 ± 8 µM.

On to `c1c[nH]cn1` [Imidazole], for which the Kd worked out at 7.6 ± 0.2 µM.

Consider `O=NO` [NaNO2], for which the Kd amounted to 770 ± 30 µM.

One may read the Kd as the free concentration of one partner at which half of the binding sites on the other are occupied at equilibrium, for simple one-to-one binding. A higher Kd goes with weaker binding.

The values above are taken from publication PMC3050645 (Journal of the American Chemical Society, 2010).
